How the values were obtained:
[1] = biological target: human recombinant sGC enzyme (Homo sapiens (Human), UniProt Q02108+Q02153); assay: Size Exclusion Chromatography (SEC) competition binding assay using [3H] Ex-77B as the radioligand; settings: [3H] Ex-77B radioligand, 24 hours at 37° C.
How it was run: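 Recombinant human sGC binding measured by competition against tritiated Ex-77B radioligand, with non-specific binding defined by 1 μM unlabeled Ex-77B.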

[2] = system: Spontaneously hypertensive rats (SHR); assay: Acute efficacy in spontaneously hypertensive rats (SHR); format: in vivo, rat
Excerpt: Acute Efficacy in Spontaneously Hypertensive Rats (SHR)
Spontaneously hypertensive rats (SHR, male, Charles River) were implanted with DSI TA11PA-C40 telemetry device (Data Sciences, Inc., St. Paul, Minn.) under isoflurane or ketamine/metomidine anesthesia. The telemetry unit catheter was inserted into the descending aorta via the femoral artery and the telemetry device was implanted subcutaneously in the left flank area. Animals were allowed to recover from surgery for 14 days before the start of any studies. Blood pressure, heart rate, and activity signals from conscious, freely moving rats were recorded continuously for 30 seconds every 10 minutes. On the day prior to administration of compound, a single oral dose of vehicle (10% transcutol/20% Cremophor/70% water) was administered to all animals to establish baseline control data. The blood pressure lowering efficacy of compound (PO) or vehicle was evaluated following a single oral gavage. Data were collected as hourly averages, and changes in blood pressure were calculated by subtracting control baseline data on an hourly basis. Animals were maintained on normal diet with a 12 hour light-dark cycle.
Maximum peak decreases of systolic blood pressure (SBP) in SHR at a particular P.O. dose (mpk milligrams per kilogram) for the following Example compounds are provided.

[3] = system: hypoxia-induced pulmonary hypertension rat; assay: Acute efficacy in hypoxia-induced pulmonary hypertension in rat following intratracheal administration; format: in vivo
Excerpt: Acute Efficacy in Hypoxia-Induced Pulmonary Hypertension in Rat Following Intratracheal Administration Charles River Sprague-Dawley (CD) male rats weighing approximately 350 g were implanted with HD-S21 dual pressure telemetry transmitters (Data Sciences International (DSI)) into the pulmonary artery and femoral artery. This transmitter enables simultaneous measurement of both pulmonary and systemic hemodynamic parameters in the same animal. After a 7-10 day post-operative recovery period, animals were subjected to a normobaric hypoxic (10% oxygen) environment using a Higher Peak Mountain Air Generator (MAG-10) connected to a modified rodent cage via a fitted inlet port. Oxygen (at 10%), temperature, humidity, and CO2 were controlled within normal range and animals were maintained on a 12 hour light-dark cycle with ad libitum access to food and water. After two weeks exposure to 10% O2 hypoxic environment, systolic pulmonary arterial pressure readings increased from 25 mmHg to greater than 50 mmHg. Using a 48 hour baseline average, animals with readings between 50-110 mmHg (standard deviation of less than 10 mmHg) and minimal changes in systolic systemic blood pressure were enrolled for study. Animals were utilized for up to 2 studies per week for 4 weeks with a minimum of 2 days washout between doses of test agent. Compound or vehicle was administered intra-tracheally under light isoflurane anesthesia (5% in oxygen; flow rate 2.0 L/min for 3 minutes). Once anesthetized, rats were placed on an angled intubation stand in supine position and the trachea visualized using a small laryngoscope. Animals then received either 0.5 mL/kg of vehicle or 0.5 mL/kg vehicle containing compound intra-tracheally delivered via microsprayer by use of a Penn-Century Microsprayer® needle 3″ (Model IA-1B-GP) attached to a 1 mL high pressure syringe (Penn Century-Model B-SYR-PL1000) (Penn-Century, Philadelphia, Pa.). The Microsprayer® tip was inserted into the trachea up to the point at which the bend in the needle is close to the tip of the snout, which positions the tip of the Microsprayer® in front of the carina (bifurcation of trachea at the bronchi). After dose delivery the animal is placed on its back in the home cage for recovery. Hemodynamic measurements were continuously recorded and readings consolidated to hourly moving averages. Each animal received a vehicle on Day 1 followed by vehicle or test agent on Day 2. Change from vehicle baseline was calculated by subtracting the hourly Day 1 vehicle response from the hourly Day 2 response and treatment group data was expressed as mean±SEM. Decreases of systolic blood pressure (SBP) and systolic pulmonary arterial pressure (PAP) were measured at a particular IT dose (mpk milligrams per kilogram) for the following Example compounds.

[4] = biological target: sGC α1/β1 heterodimer (Homo sapiens (Human), UniProt Q02108+Q02153); assay: Cell-based sGC functional assay (cyclic GMP assay for sGC activator: CASA assay); settings: CHO-K1/sGC cells; for Emax: CHO-K1, activity expressed as percentage of compound A (standard), read-out: % Activation; for EC50: inflection point, 4P fit, read-out: IP
How it was run: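 CHO-K1 cells stably expressing sGC α1/β1 were pre-incubated with or without 1 μM DETA-NO (30 min, 25 °C), then exposed to compounds for 1 hr at 37 °C with 0.5 mM IBMX. Intracellular cGMP was read by HTRF and expressed as a percentage of a reference heme-dependent activator's maximum.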

Row | Structure (SMILES) | Ki [1] [nM] | Category: maximum peak decrease of systolic blood pressure (SBP) in SHR ([2]; Dose P.O. 3 mpk) | Category: decrease in SBP (at minimum decrease in PAP of ≥15 mmHg) ([3]; Dose IT 0.1 mpk) | Emax [4] [%] | EC50 [4] [nM] | Category: maximum peak decrease of systolic blood pressure (SBP) in SHR ([2]; Dose P.O. 0.3 mpk) | Category: decrease in SBP (at minimum decrease in PAP of ≥15 mmHg) ([3]; Dose IT 0.03 mpk) | Category: decrease in SBP (at minimum decrease in PAP of ≥15 mmHg) ([3]; Dose IT 0.01 mpk) | Category: maximum peak decrease of systolic blood pressure (SBP) in SHR ([2]; Dose P.O. 1 mpk)
1 | C[C@@]1(c2ccc(CCC(=O)O)cc2)C(=O)Nc2nc(-c3nn(CCC(F)(F)C(F)(F)F)c4ncccc34)nc(N)c21 (single isomer, unassigned) [Example 7A] | 0.154 | A (decrease in SBP in SHRs 5-25 mmHg) | B (decrease in SBP 5-10 mmHg) | 98 | 1030 | – | – | – | –
2 | CC(C)(Cc1csc([C@]2(C)C(=O)Nc3nc(-c4nn(CCC(F)(F)C(F)(F)F)c5cc(Cl)ccc45)nc(N)c32)n1)C(=O)O [Example 92B, (S)-3-(2-{4-amino-2-[6-chloro-1-(3,3,4,4,4-pentafluorobutyl)-1H-indazol-3-yl]-5-methyl-6-oxo-6,7-dihydro-5H-pyrrolo[2,3-d]pyrimidin-5-yl}-1,3-thiazol-4-yl)-2,2-dimethylpropanoic acid] | 0.175 | – | – | 111 | 219 | A (decrease in SBP in SHRs 5-25 mmHg) | A (decrease in SBP 0-5 mmHg) | – | –
3 | C[C@@]1(c2ccc(CCC(=O)O)cc2)C(=O)Nc2nc(-c3nn(CCC(F)(F)C(F)(F)F)c4cc(F)ccc34)nc(N)c21 [Example 46B, (S)-3-(4-{4-amino-2-[6-fluoro-1-(3,3,4,4,4-pentafluorobutyl)-1H-indazol-3-yl]-5-methyl-6-oxo-6,7-dihydro-5H-pyrrolo[2,3-d]pyrimidin-5-yl}phenyl)propanoic acid] | 0.216 | A (decrease in SBP in SHRs 5-25 mmHg) | – | 95 | 647 | – | A (decrease in SBP 0-5 mmHg) | – | –
4 | C[C@@]1(c2ccc(CCC(=O)O)cc2)C(=O)Nc2nc(-c3nn(Cc4ccccc4F)c4ncccc34)nc(N)c21 [Example 21B, (S)-3-(4-{4-amino-2-[1-(2-fluorobenzyl)-1H-pyrazolo[3,4-b]pyridin-3-yl]-5-methyl-6-oxo-6,7-dihydro-5H-pyrrolo[2,3-d]pyrimidin-5-yl}phenyl)propanoic acid] | 0.064 | A (decrease in SBP in SHRs 5-25 mmHg) | – | 93 | 362 | – | A (decrease in SBP 0-5 mmHg) | – | –
5 | CC(C)(Cc1coc(C2(C)C(=O)Nc3nc(-c4nn(CCC(F)(F)C(F)(F)F)c5cc(Cl)ccc45)nc(N)c32)n1)C(=O)O (stereo not drawn) [Example 2A, 3-(2-{4-amino-2-[6-chloro-1-(3,3,4,4,4-pentafluorobutyl)-1H-indazol-3-yl]-5-methyl-6-oxo-6,7-dihydro-5H-pyrrolo[2,3-d]pyrimidin-5-yl}oxazol-4-yl)-2,2-dimethyl-propanoic acid] | 0.322 | A (decrease in SBP in SHRs 5-25 mmHg) | – | 111 | 1060 | – | A (decrease in SBP 0-5 mmHg) | – | –
6 | C[C@@]1(c2ccc(CCC(=O)O)cc2)C(=O)Nc2nc(-c3nn(CCC(F)(F)C(F)(F)F)c4cc(Cl)ccc34)nc(N)c21 [Example 10B, (S)-3-(4-{4-Amino-2-[6-chloro-1-(3,3,4,4,4-pentafluorobutyl)-1H-indazol-3-yl]-5-methyl-6-oxo-6,7-dihydro-5H-pyrrolo[2,3-d]pyrimidin-5-yl}phenyl)propanoic acid] | 0.15 | A (decrease in SBP in SHRs 5-25 mmHg) | – | 117 | 456 | – | – | A (decrease in SBP 0-5 mmHg) | –
7 | CC(C)(Cc1csc(C2(C)C(=O)Nc3nc(-c4nn(CCC(F)(F)C(F)(F)F)c5ncc(F)cc45)nc(N)c32)n1)C(=O)O (stereo not drawn) [Example 84A, 3-(2-{4-amino-2-[5-fluoro-1-(3,3,4,4,4-pentafluorobutyl)-1H-pyrazolo[3,4-b]pyridin-3-yl]-5-methyl-6-oxo-6,7-dihydro-5H-pyrrolo[2,3-d]pyrimidin-5-yl}-1,3-thiazol-4-yl)-2,2-dimethylpropanoic acid] | 0.166 | – | – | 113 | 130 | – | A (decrease in SBP 0-5 mmHg) | – | C (decrease in SBP in SHRs>40 mmHg)
8 | CC(C)(Cc1csc([C@]2(C)C(=O)Nc3nc(-c4nn(CCC(F)(F)C(F)(F)F)c5ncccc45)nc(N)c32)n1)C(=O)O (single isomer, unassigned) [Example 77B] | 0.232 | – | – | 105 | 489 | – | A (decrease in SBP 0-5 mmHg) | – | C (decrease in SBP in SHRs>40 mmHg)
9 | CC(C)(CCc1coc(C2(C)C(=O)Nc3nc(-c4nn(Cc5ccccc5F)c5ccccc45)nc(N)c32)n1)C(=O)O (stereo not drawn) [Example 220B, 4-(2-{4-amino-2-[1-(2-fluorobenzyl)-1H-indazol-3-yl]-5-methyl-6-oxo-6,7-dihydro-5H-pyrrolo[2,3-d]pyrimidin-5-yl}-1,3-oxazol-4-yl)-2,2-dimethyl-butanoic acid] | 0.087 | – | – | 113 | 82 | – | – | B (decrease in SBP 5-10 mmHg) | –
10 | CC(C)(Cc1coc(C2(C)C(=O)Nc3nc(-c4nn(Cc5cccc(F)c5)c5cc(F)ccc45)nc(N)c32)n1)C(=O)O (stereo not drawn) [Example 195A, 3-(2-{4-amino-2-[6-fluoro-1-(3-fluorobenzyl)-1H-indazol-3-yl]-5-methyl-6-oxo-6,7-dihydro-5H-pyrrolo[2,3-d]pyrimidin-5-yl}-1,3-oxazol-4-yl)-2,2-dimethyl-propanoic acid] | 0.092 | – | – | 103 | 194 | – | – | B (decrease in SBP 5-10 mmHg) | –

Source: patent US10030027B2, “Soluble guanylate cyclase stimulators” (MERCK SHARP & DOHME CORP., priority 2015, dated 2018)
